Target: T1, human full-length MKNK1 (Homo sapiens, UniProt Q9BUB5, T385D)
T1 construct: GST (N); purchased Carna Biosciences 02-145; host or cells: insect cells, baculovirus expression system
Experiment: MKNK1 kinase high ATP assay (TR-FRET)
Assay type: biochemical
Settings: high ATP (2 mM), after preincubation with MKNK1; compounds of the present invention (Table 1a)
Description: MKNK1-inhibitory activity at high ATP of compounds of the present invention after their preincubation with MKNK1 was quantified employing the TR-FRET-based MKNK1 high ATP assay as described in the following paragraphs.
A recombinant fusion protein of Glutathione-S-Transferase (GST, N-terminally) and human full-length MKNK1 (amino acids 1-424 and T344D of accession number BAA 19885.1), expressed in insect cells using baculovirus expression system and purified via glutathione sepharose affinity chromatography, was purchased from Carna Biosciences (product no 02-145) and used as enzyme. As substrate for the kinase reaction the biotinylated peptide biotin-Ahx-IKKRKLTRRKSLKG (C-terminus in amide form) was used, which can be purchased e.g. from the company Biosyntan (Berlin-Buch, Germany).
For the assay 50 nL of a 100 fold concentrated solution of the test compound in DMSO was pipetted into a black low volume 384 well microtiter plate (Greiner Bio-One, Frickenhausen, Germany), 2 μL of a solution of MKNK1 in aqueous assay buffer [50 mM HEPES pH 7.5, 5 mM MgCl2, 1.0 mM dithiothreitol, 0.005% (v/v) Nonidet-P40 (Sigma)] was added and the mixture was incubated for 15 min at 22° C. to allow pre-binding of the test compounds to the enzyme before the start of the kinase reaction. Then the kinase reaction was started by the addition of 3 μL of a solution of adenosine-tri-phosphate (ATP, 3.3 mM=>final conc. in the 5 μL assay volume is 2 mM) and substrate (0.1 μM=>final conc. in the 5 μL assay volume is 0.06 μM) in assay buffer and the resulting mixture was incubated for a reaction time of 30 min at 22° C. The concentration of MKNK1 was adjusted depending of the activity of the enzyme lot and was chosen appropriate to have the assay in the linear range, typical concentrations were in the range of 0.003 μg/mL. The reaction was stopped by the addition of 5 μL of a solution of TR-FRET detection reagents (5 nM streptavidine-XL665 [Cisbio Bioassays, Codolet, France] and 1 nM anti-ribosomal protein […] (pSer236)-antibody from Invitrogen [#44921G] and 1 nM LANCE EU-W1024 labeled ProteinG [Perkin-Elmer, product no. AD0071]) in an aqueous EDTA-solution (100 mM EDTA, 0.1% (w/v) bovine serum albumin in 50 mM HEPES pH 7.5).
The resulting mixture was incubated for 1 h at 22° C. to allow the formation of complex between the phosphorylated biotinylated peptide and the detection reagents. Subsequently the amount of phosphorylated substrate was evaluated by measurement of the resonance energy transfer from the Eu-chelate to the streptavidine-XL. Therefore, the fluorescence emissions at 620 nm and 665 nm after excitation at 350 nm were measured in a TR-FRET reader, e.g. a Rubystar (BMG Labtechnologies, Offenburg, Germany) or a Viewlux (Perkin-Elmer). The ratio of the emissions at 665 nm and at […] was taken as the measure for the amount of phosphorylated substrate. The data were normalised (enzyme reaction without inhibitor=0% inhibition, all other assay components but no enzyme=100% inhibition). […] Table 1a lists MKNK1 high ATP IC50 values of some compounds of the present invention.

T1 sequence (Q9BUB5 1-424 isoform Q9BUB5-2 T344D): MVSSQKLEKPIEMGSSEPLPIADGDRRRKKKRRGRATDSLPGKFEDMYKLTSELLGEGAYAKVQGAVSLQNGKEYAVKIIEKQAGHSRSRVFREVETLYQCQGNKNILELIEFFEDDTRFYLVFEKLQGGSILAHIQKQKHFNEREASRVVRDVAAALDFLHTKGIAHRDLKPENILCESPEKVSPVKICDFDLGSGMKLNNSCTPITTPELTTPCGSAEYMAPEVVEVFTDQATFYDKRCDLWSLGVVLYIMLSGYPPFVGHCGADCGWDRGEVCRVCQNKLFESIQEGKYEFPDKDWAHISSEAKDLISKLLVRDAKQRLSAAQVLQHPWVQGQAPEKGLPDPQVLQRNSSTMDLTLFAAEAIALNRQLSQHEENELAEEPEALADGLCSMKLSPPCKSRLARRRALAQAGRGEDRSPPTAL

SMILES	IC50 [nM]
COc1cc2[nH]ncc2cc1Nc1ncnc2sc3c(c12)CCC(CNC(=O)C(C)C)C3 (racemic) [Example 21, (RS)—N-({4-[(6-Methoxy-1H-indazol-5-yl)amino]-5,6,7,8-tetrahydro[1]benzothieno[2,3-d]pyrimidin-7-yl}methyl)-2-methylpropanamide]	2.1
CC[C@]1(C(=O)N2C[C@@H](C)O[C@@H](C)C2)CCc2c(sc3ncnc(Nc4cc5cn[nH]c5cc4OC)c23)C1 [Example 71, (7S) [(2R,6S)-2,6-Dimethylmorpholin-4-yl]{7-ethyl-4-[(6-methoxy-1H-indazol-5-yl)amino]-5,6,7,8-tetrahydro[1]benzothieno[2,3-d]pyrimidin-7-yl}methanone]	1.6
CC[C@@]1(C(=O)N2CCC2)CCc2c(sc3ncnc(Nc4cc5cn[nH]c5cc4OC)c23)C1 [Example 68, (7R) Azetidin-1-yl{(7S)-7-ethyl-4-[(6-methoxy-1H-indazol-5-yl)amino]-5,6,7,8-tetrahydro[1]benzothieno[2,3-d]pyrimidin-7-yl}methanone]	24.6
COc1cc2[nH]ncc2cc1Nc1ncnc2sc3c(c12)CCC(CN)C3 (racemic) [Example 19, (RS)-7-(aminomethyl)-N-(6-methoxy-1H-indazol-5-yl)-5,6,7,8-tetrahydro[1]benzothieno[2,3-d]pyrimidin-4-amine]	6.2
O=P(OCC1CCc2c(sc3ncnc(Nc4ccc5[nH]ncc5c4)c23)C1)(Oc1ccccc1)Oc1ccccc1 (racemic) [Example 5, (RS)-[4-(1H-Indazol-5-ylamino)-5,6,7,8-tetrahydro[1]benzothieno[2,3-d]pyrimidin-7-yl]methyl diphenyl phosphate]	205
COc1cc2[nH]ncc2cc1Nc1ncnc2sc3c(c12)CCC(N(C)C)C3 (racemic) [Example 36, (RS)—N^4-(6-Methoxy-1H-indazol-5-yl)-N^7,N^7-dimethyl-5,6,7,8-tetrahydro[1]benzothieno[2,3-d]pyrimidine-4,7-diamine]	14.1
CC(C)OC(=O)NCC1CCc2c(sc3ncnc(Nc4ccc5[nH]ncc5c4)c23)C1 (racemic) [Example 9, (RS)-Propan-2-yl {[4-(1H-indazol-5-ylamino)-5,6,7,8-tetrahydro[1]benzothieno[2,3-d]pyrimidin-7-yl]methyl}carbamate]	30.2
COc1cc2[nH]ncc2cc1Nc1ncnc2sc3c(c12)CCC(CNC(=O)[C@@H](O)Cc1ccccc1)C3 (mixture of isomers) [Example 23, (2R)-2-Hydroxy-N-({(7RS)-4-[(6-methoxy-1H-indazol-5-yl)amino]-5,6,7,8-tetrahydro[1]benzothieno[2,3-d]pyrimidin-7-yl}methyl)-3-phenylpropanamide]	5
COCC1(OC)CCc2c(sc3ncnc(Nc4cc5cn[nH]c5cc4C)c23)C1 (single isomer, unassigned) [Example 41, (7S) or (7R) 7-Methoxy-7-(methoxymethyl)-N-(6-methyl-1H-indazol-5-yl)-5,6,7,8-tetrahydro[1]benzothieno[2,3-d]pyrimidin-4-amine]	371
Cc1cc2[nH]ncc2cc1Nc1ncnc2sc3c(c12)CCC(C)C3 (racemic) [Example 25, (RS)-7-Methyl-N-(6-methyl-1H-indazol-5-yl)-5,6,7,8-tetrahydro[1]benzothieno[2,3-d]pyrimidin-4-amine]	124
COc1cc2[nH]ncc2cc1Nc1ncnc2sc3c(c12)CC[C@](C)(C(=O)N1CCOCC1)C3 [Example 52, (7S) {4-[(6-Methoxy-1H-indazol-5-yl)amino]-7-methyl-5,6,7,8-tetrahydro[1]benzothieno[2,3-d]pyrimidin-7-yl}(morpholin-4-yl)methanone]	2
COc1cc2[nH]ncc2cc1Nc1ncnc2sc3c(c12)CCC(CO)C3 (racemic) [Example 17, (RS)-{4-[(6-Methoxy-1H-indazol-5-yl)amino]-5,6,7,8-tetrahydro[1]benzothieno[2,3-d]pyrimidin-7-yl}methanol]	3.2
COCC1(OC)CCc2c(sc3ncnc(Nc4ccc5[nH]ncc5c4)c23)C1 (racemic) [Example 37, (7RS)—N-(1H-Indazol-5-yl)-7-methoxy-7-(methoxymethyl)-5,6,7,8-tetrahydro[1]benzothieno[2,3-d]pyrimidin-4-amine]	47.8
COc1cc2[nH]ncc2cc1Nc1ncnc2sc3c(c12)CC[C@@](C)(C(=O)N1CCOCC1)C3 [Example 53, (7R) {4-[(6-Methoxy-1H-indazol-5-yl)amino]-7-methyl-5,6,7,8-tetrahydro[1]benzothieno[2,3-d]pyrimidin-7-yl}(morpholin-4-yl)methanone]	18.9
COCC1(OC)CCc2c(sc3ncnc(Nc4cc5cn[nH]c5cc4Cl)c23)C1 (racemic) [Example 31, (RS)—N-(6-Chloro-1H-indazol-5-yl)-7-methoxy-7-(methoxymethyl)-5,6,7,8-tetrahydro[1]benzothieno[2,3-d]pyrimidin-4-amine]	149
COc1cc2[nH]ncc2cc1Nc1ncnc2sc3c(c12)CCC(C)C3 (racemic) [Example 27, (RS)—N-(6-Methoxy-1H-indazol-5-yl)-7-methyl-5,6,7,8-tetrahydro[1]benzothieno[2,3-d]pyrimidin-4-amine]	66.3
CC[C@]1(C(=O)N2CCOCC2)CCc2c(sc3ncnc(Nc4cc5cn[nH]c5cc4OC)c23)C1 [Example 63, (7S) {7-Ethyl-4-[(6-methoxy-1H-indazol-5-yl)amino]-5,6,7,8-tetrahydro[1]benzothieno[2,3-d]pyrimidin-7-yl}(morpholin-4-yl)methanone]	1.8
CC[C@]1(C(=O)N2CCOC[C@H]2C)CCc2c(sc3ncnc(Nc4cc5cn[nH]c5cc4OC)c23)C1 [Example 75, {(7S)-7-Ethyl-4-[(6-methoxy-1H-indazol-5-yl)amino]-5,6,7,8-tetrahydro[1]benzothieno[2,3-d]pyrimidin-7-yl}[(3R)-3-methylmorpholin-4-yl]methanone]	20.6
CC[C@@]1(C(=O)N2C[C@@H](C)O[C@@H](C)C2)CCc2c(sc3ncnc(Nc4cc5cn[nH]c5cc4OC)c23)C1 [Example 70, (7R) [(2R,6S)-2,6-Dimethylmorpholin-4-yl]{7-ethyl-4-[(6-methoxy-1H-indazol-5-yl)amino]-5,6,7,8-tetrahydro[1]benzothieno[2,3-d]pyrimidin-7-yl}methanone]	50.9
COCC1(OC)CCc2c(sc3ncnc(Nc4ccc5[nH]ncc5c4)c23)C1 (single isomer, unassigned) [Example 39, (7S) or (7R) N-(1H-Indazol-5-yl)-7-methoxy-7-(methoxymethyl)-5,6,7,8-tetrahydro[1]benzothieno[2,3-d]pyrimidin-4-amine]	69.3
OCC1CCc2c(sc3ncnc(Nc4ccc5[nH]ncc5c4)c23)C1 (racemic) [Example 1, (RS)-[4-(1H-Indazol-5-ylamino)-5,6,7,8-tetrahydro[1]benzothieno[2,3-d]pyrimidin-7-yl]methanol]	31.7
CC[C@]1(C(=O)N(C)C(C)C)CCc2c(sc3ncnc(Nc4cc5cn[nH]c5cc4OC)c23)C1 [Example 73, (7S) 7-Ethyl-N-isopropyl-4-[(6-methoxy-1H-indazol-5-yl)amino]-N-methyl-5,6,7,8-tetrahydro[1]benzothieno[2,3-d]pyrimidine-7-carboxamide]	1.4
